The supplement of paper PMC10307832

Compound: Cc1ccc(NC(=O)c2ccc(CN3CCN(C)CC3)cc2)cc1Nc1nc(-c2cccnc2)cs1 [Masitinib] + C[C@]1(O)C[C@@H](c2nc(-c3ccc4ccc(-c5ccccc5)nc4c3)c3c(N)nccn32)C1 [Linsitinib] (partner 1 µM)
Experiment: relative viability (nuclei count vs DMSO), 5 days (fraction); higher = more cells survive
Conditions: first compound 0.01 µM
Outline: (§1)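 A single step with final 0.05% Triton X-100, 1% formaldehyde and 1 ug/ml Hoechst fixed the cells and stained nuclei 5 days after treatment. Lung cancer cell lines in 1536-well plates had been treated by pin tool the day after seeding with one drug alone or a fixed anchor-drug dose plus five library-drug doses (not always all listed) in √10 steps, and nuclei were counted on 4× images. Relative viability is the ratio of nuclei in treated wells to nuclei in vehicle wells, taken as the median of duplicate plates.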

First: LU99A
Second: PC-14
The relative viability of the first is lower: 0.511 for the first, 0.918 for the second.

Going from LCLC-103H to NCI-H596, the relative viability rises from 0.796 to 1.21.

Compared with NCI-H2228, EMC-BAC-2 is higher in relative viability: 0.703 for the first, 0.757 for the second.

First: NCI-H2087
Second: Calu-6
The relative viability of the first is higher: 0.936 for the first, 0.815 for the second.

First: HCC-366
Second: NCI-H1703
The relative viability of the first is higher: 0.728 for the first, 0.667 for the second.

Compared with NCI-H647, LK-2 is lower in relative viability: 1.03 for the first, 0.511 for the second.

First: NCI-H2126
Second: NCI-H1793
The relative viability of the first is lower: 0.707 for the first, 0.875 for the second.

Going from H3255 to COR-L23, the relative viability rises from 0.679 to 1.11.

Going from COR-L 105 to IA-LM, the relative viability falls from 0.993 to 0.365.

Compared with LOU-NH91, NCI-H358 is lower in relative viability: 0.909 for the first, 0.86 for the second.

First: NCI-H3122
Second: HOP-62
The relative viability of the first is higher: 1.01 for the first, 0.916 for the second.

First: A549
Second: HCC-78
The relative viability of the first is higher: 0.576 for the first, 0.417 for the second.

First: NCI-H1299
Second: NCI-H1563
The relative viability of the first is lower: 0.778 for the first, 1.17 for the second.

With ABC-1 the relative viability was 0.78.

Same assay, conditions: first compound 0.03162 µM

Compared with NCI-H838, NCI-H1651 is higher in relative viability: 0.913 for the first, 0.97 for the second.

Compared with EBC-1, NCI-H1734 is higher in relative viability: 0.753 for the first, 0.854 for the second.

Going from NCI-H2009 to LU99A, the relative viability falls from 1.22 to 0.53.

Compared with PC-14, LCLC-103H is higher in relative viability: 0.904 for the first, 1.02 for the second.

Compared with NCI-H596, NCI-H2228 is lower in relative viability: 0.98 for the first, 0.58 for the second.

Going from EMC-BAC-2 to NCI-H2087, the relative viability rises from 0.796 to 0.951.

Going from Calu-6 to HCC-366, the relative viability falls from 0.916 to 0.521.

First: NCI-H1703
Second: NCI-H647
The relative viability of the first is lower: 1.02 for the first, 1.19 for the second.

Compared with LK-2, NCI-H2126 is higher in relative viability: 0.573 for the first, 0.656 for the second.

Compared with NCI-H1793, H3255 is higher in relative viability: 0.839 for the first, 0.844 for the second.

Compared with COR-L23, COR-L 105 is higher in relative viability: 0.923 for the first, 0.973 for the second.

Compared with IA-LM, LOU-NH91 is higher in relative viability: 0.541 for the first, 0.893 for the second.

Going from NCI-H358 to NCI-H3122, the relative viability rises from 0.877 to 1.01.

Compared with HOP-62, A549 is lower in relative viability: 0.978 for the first, 0.602 for the second.

First: HCC-78
Second: NCI-H1299
The relative viability of the first is lower: 0.423 for the first, 1.02 for the second.

Going from NCI-H1563 to ABC-1, the relative viability falls from 1.09 to 0.78.

Same assay, conditions: first compound 0.1 µM

Going from NCI-H838 to NCI-H1651, the relative viability falls from 1.16 to 1.14.

First: EBC-1
Second: NCI-H1734
The relative viability of the first is higher: 1.21 for the first, 0.943 for the second.

Compared with NCI-H2009, LU99A is lower in relative viability: 1.24 for the first, 0.512 for the second.

Going from PC-14 to LCLC-103H, the relative viability falls from 1 to 0.859.

Going from NCI-H596 to NCI-H2228, the relative viability falls from 1.05 to 0.609.

Going from EMC-BAC-2 to NCI-H2087, the relative viability rises from 0.867 to 0.923.

Compared with Calu-6, HCC-366 is lower in relative viability: 1.06 for the first, 0.841 for the second.

First: NCI-H1703
Second: NCI-H647
The relative viability of the first is lower: 0.479 for the first, 1.03 for the second.

First: LK-2
Second: NCI-H2126
The relative viability of the first is lower: 0.618 for the first, 0.785 for the second.

Going from NCI-H1793 to H3255, the relative viability rises from 0.812 to 0.837.

Going from COR-L23 to COR-L 105, the relative viability falls from 1 to 0.921.

Compared with IA-LM, LOU-NH91 is higher in relative viability: 0.557 for the first, 0.972 for the second.

Compared with NCI-H358, NCI-H3122 is higher in relative viability: 0.715 for the first, 1.06 for the second.

Compared with HOP-62, A549 is lower in relative viability: 0.973 for the first, 0.667 for the second.

Compared with HCC-78, NCI-H1299 is higher in relative viability: 0.55 for the first, 1.06 for the second.

Going from NCI-H1563 to ABC-1, the relative viability falls from 1.19 to 0.982.

Same assay, conditions: first compound 0.3162 µM

First: NCI-H838
Second: NCI-H1651
The relative viability of the first is lower: 0.86 for the first, 1 for the second.

First: EBC-1
Second: NCI-H1734
The relative viability of the first is higher: 0.857 for the first, 0.747 for the second.

First: NCI-H2009
Second: LU99A
The relative viability of the first is higher: 1.23 for the first, 0.719 for the second.

Compared with PC-14, LCLC-103H is higher in relative viability: 0.976 for the first, 1.01 for the second.

Going from NCI-H596 to NCI-H2228, the relative viability falls from 1.14 to 0.807.

First: EMC-BAC-2
Second: NCI-H2087
The relative viability of the first is lower: 0.903 for the first, 1.01 for the second.

Compared with Calu-6, HCC-366 is lower in relative viability: 0.997 for the first, 0.753 for the second.

Compared with NCI-H1703, NCI-H647 is higher in relative viability: 0.23 for the first, 0.849 for the second.

Going from LK-2 to NCI-H2126, the relative viability rises from 0.649 to 0.691.

Compared with NCI-H1793, H3255 is lower in relative viability: 0.998 for the first, 0.977 for the second.

Compared with COR-L23, COR-L 105 is lower in relative viability: 1.07 for the first, 0.753 for the second.

Going from IA-LM to LOU-NH91, the relative viability rises from 0.504 to 0.928.

First: NCI-H358
Second: NCI-H3122
The relative viability of the first is lower: 0.809 for the first, 0.828 for the second.

First: HOP-62
Second: A549
The relative viability of the first is higher: 0.917 for the first, 0.681 for the second.

First: HCC-78
Second: NCI-H1299
The relative viability of the first is lower: 0.557 for the first, 1.09 for the second.

Compared with NCI-H1563, ABC-1 is lower in relative viability: 1.26 for the first, 0.871 for the second.

Same assay, conditions: first compound 1 µM

Going from NCI-H838 to NCI-H1651, the relative viability falls from 1.05 to 0.944.

Compared with EBC-1, NCI-H1734 is higher in relative viability: 0.588 for the first, 0.855 for the second.

Compared with NCI-H2009, LU99A is lower in relative viability: 1.17 for the first, 0.505 for the second.

Going from PC-14 to LCLC-103H, the relative viability rises from 0.999 to 1.08.

Compared with NCI-H596, NCI-H2228 is lower in relative viability: 1.05 for the first, 0.52 for the second.

Going from EMC-BAC-2 to NCI-H2087, the relative viability rises from 0.814 to 0.884.

Going from Calu-6 to HCC-366, the relative viability falls from 0.902 to 0.55.

Compared with NCI-H1703, NCI-H647 is higher in relative viability: 0.187 for the first, 1.26 for the second.

First: LK-2
Second: NCI-H2126
The relative viability of the first is higher: 0.812 for the first, 0.659 for the second.

First: NCI-H1793
Second: H3255
The relative viability of the first is lower: 0.647 for the first, 0.936 for the second.

Compared with COR-L23, COR-L 105 is lower in relative viability: 1.05 for the first, 0.881 for the second.

Compared with IA-LM, LOU-NH91 is higher in relative viability: 0.451 for the first, 0.911 for the second.

First: NCI-H358
Second: NCI-H3122
The relative viability of the first is lower: 0.623 for the first, 1.1 for the second.

First: HOP-62
Second: A549
The relative viability of the first is higher: 0.833 for the first, 0.545 for the second.

Compared with HCC-78, NCI-H1299 is higher in relative viability: 0.486 for the first, 0.879 for the second.

Going from NCI-H1563 to ABC-1, the relative viability falls from 1.17 to 0.622.

Compound: Cc1ccc(NC(=O)c2ccc(CN3CCN(C)CC3)cc2)cc1Nc1nc(-c2cccnc2)cs1 [Masitinib] + CCNC(=O)c1noc(-c2cc(C(C)C)c(O)cc2O)c1-c1ccc(CN2CCOCC2)cc1 [Luminespib] (partner 0.01 µM)
Experiment: as above
Conditions: first compound 0.01 µM
Outline: as §1

Compared with NCI-H522, NCI-H1623 is lower in relative viability: 1.18 for the first, 0.493 for the second.
